Test results: ChEMBL document CHEMBL4354785, “Recent insights into natural product inhibitors of matrix metalloproteinases” (Medchemcomm, 2019)

Tests used:
[1] = target: 72 kDa type IV collagenase (Homo sapiens, UniProt P08253); assay: Inhibition of recombinant human MMP2 using fluorescently conjugated gelatin as substrate
[2] = target: T1, Matrix metalloproteinase-9 (Homo sapiens, UniProt P14780); assay: Inhibition of human MMP9 (107 to 707 residues) expressed in Escherichia coli BL21(DE3) cells
[3] = target: T1, Matrix metalloproteinase-9; assay: Inhibition of human MMP9 catalytic domain using Mca-PLGL-Dpa-AR-NH2 as substrate by fluorescence method

Chain of 72 kDa type IV collagenase (P08253 whole entry, the tested form may be a part): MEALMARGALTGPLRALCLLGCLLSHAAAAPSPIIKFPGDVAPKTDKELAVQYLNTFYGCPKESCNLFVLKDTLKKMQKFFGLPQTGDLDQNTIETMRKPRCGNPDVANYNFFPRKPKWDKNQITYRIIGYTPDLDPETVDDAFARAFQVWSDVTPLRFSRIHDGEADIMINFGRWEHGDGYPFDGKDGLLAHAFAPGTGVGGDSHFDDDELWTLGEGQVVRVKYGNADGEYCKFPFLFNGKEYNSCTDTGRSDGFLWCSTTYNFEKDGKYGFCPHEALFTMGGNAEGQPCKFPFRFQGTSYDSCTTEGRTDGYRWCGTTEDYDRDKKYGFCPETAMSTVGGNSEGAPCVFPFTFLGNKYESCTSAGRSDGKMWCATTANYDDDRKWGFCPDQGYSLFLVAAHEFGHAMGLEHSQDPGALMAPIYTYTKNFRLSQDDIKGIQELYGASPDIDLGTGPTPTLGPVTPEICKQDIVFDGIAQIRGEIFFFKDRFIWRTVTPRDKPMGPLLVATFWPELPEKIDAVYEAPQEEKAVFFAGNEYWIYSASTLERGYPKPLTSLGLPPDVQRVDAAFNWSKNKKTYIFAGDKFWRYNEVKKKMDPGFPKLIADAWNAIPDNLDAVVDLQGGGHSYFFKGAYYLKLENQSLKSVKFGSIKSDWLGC
T1 sequence (P14780 whole entry, the tested form may be a part): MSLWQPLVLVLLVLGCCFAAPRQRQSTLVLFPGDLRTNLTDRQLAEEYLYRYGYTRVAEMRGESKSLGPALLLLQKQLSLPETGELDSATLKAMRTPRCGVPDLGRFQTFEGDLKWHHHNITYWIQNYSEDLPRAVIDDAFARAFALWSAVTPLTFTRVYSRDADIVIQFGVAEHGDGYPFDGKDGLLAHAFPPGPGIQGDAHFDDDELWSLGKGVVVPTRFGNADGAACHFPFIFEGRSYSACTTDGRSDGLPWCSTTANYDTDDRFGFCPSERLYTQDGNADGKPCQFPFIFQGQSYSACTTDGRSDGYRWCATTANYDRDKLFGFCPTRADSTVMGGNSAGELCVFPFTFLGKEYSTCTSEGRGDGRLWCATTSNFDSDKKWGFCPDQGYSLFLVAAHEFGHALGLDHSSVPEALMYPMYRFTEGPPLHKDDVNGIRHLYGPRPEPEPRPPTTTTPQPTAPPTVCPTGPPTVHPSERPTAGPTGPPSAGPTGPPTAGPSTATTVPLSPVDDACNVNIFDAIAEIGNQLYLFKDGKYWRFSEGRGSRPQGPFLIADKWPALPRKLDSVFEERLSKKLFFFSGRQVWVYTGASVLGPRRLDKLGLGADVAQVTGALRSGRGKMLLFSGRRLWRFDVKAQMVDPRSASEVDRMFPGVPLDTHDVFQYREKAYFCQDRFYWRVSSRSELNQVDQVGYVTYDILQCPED

| IC50 [1] [µM] | Compound | further results |
| --- | --- | --- |
| 6.5 | CCCCC/C=C/CCCCCCCc1cccc(O)c1C(=O)O |  |
|  | O=C(/C=C/c1ccc(O)c(O)c1)Oc1ccc2c(c1)C(=O)OCC2 | IC50 [2]: 1.39 µM |
|  | COc1ccc(/C=C/C(=O)O[C@H](C(=O)O)[C@](O)(Cc2ccc(O)c(O)c2)C(=O)O)cc1O [CIMICIFUGIC ACID B] | IC50 [3]: 13.4 µM |
| 6.3 | CCCCCC/C=C\CCCCCCCc1cccc(O)c1C(=O)O [GINGKOLIC ACID] |  |
